From patent publication US20110311601A1, “ANTIMICROBIAL MEDICAL DEVICES” (priority 2010, published 2011)
Where no end group is shown, it is not given here.

What was measured:
Assay in all cases: micro-dilution assay (MBC, LD90)
Assay type in all cases: cell-based
E. coli ATCC 25922 = test system: E. coli ATCC 25922
Method: (§1) The anti-bacterial activity of hβD2 was tested by a micro-dilution assay. Bacteria and fungi were streaked from a glycerol stock onto a Brain Heart Infusion (BHI) agar plate (3.7% w/v BHI Bouillon, 1.5% w/v Agar), grown overnight at 37° C. and 30° C., respectively and subsequently used to inoculate 40 ml of 3.7% w/v BHI Bouillon without any antibiotics in 100 ml flasks. Fresh cells were harvested by centrifugation at 16000 rpm for 10 min and washed twice with 10 mM sodium phosphate buffer, pH 7.2. The optical density was adjusted to 10^4 cells/ml. For anti-bacterial testing hβD2 was incubated in one well of a microtiter plate containing 100 μl of the bacterial suspension. Therefore, ten microlitres of hβD2 solution with a range of final concentrations tested from 0.0125 up to and including 100 mg/l was added to the bacterial suspension and incubated at 37° C. and 30° C., respectively for 2 h before colony forming units were determined. Colony forming units (CFU) were determined after plating 100 μl of a 1:100 dilution of the bacterial suspension on petri dishes with BHI medium and incubating them overnight at 37° C. For every group of the hβD2 added samples and the controls, 5 independent anti-bacterial assays were performed. A control (NC) of bacterial growth was examined for every independent assay. The number of CFU on the control (consisting of a single petri dish) was set to 0% bactericidal activity. The reduction in the CFU resulting from the anti-bacterial activity of hβD2 was related to the absolute CFU of the control within every independent assay. This value, given as a percentage of the bacterial “killing” activity, was used to describe the antibacterial activity. This kind of normalisation of the antibacterial data was performed for every experimental group.
(§2) The antibacterial activity of hβD2 were given either as minimum bactericidal concentration (MBC), i.e., the minimum concentration of hβD2 in μg/ml which is required to kill 99.9% of the bacteria or fungi or as lethal dose (LD90), i.e., the concentration of hβD2 in μg/ml which is lethal for 90% of bacteria or fungi.

[1] = test system: Stenotrophomonas maltophilia ATCC 17666
Method: as §1, §2

[2] = test system: E. coli (ESBL 3) Va 4425/01 (wild-type)
Method: as §1, §2

[3] = test system: Proteus vulgaris BK 8730/99 (wild-type)
Method: as §1, §2

[4] = test system: Pseudomonas aeruginosa CF 509 mr (wild-type)
Method: as §1, §2

[5] = test system: Enterococcus faecium (VRE) Ulm 68 (wild-type)
Method: as §1, §2

[6] = test system: Proteus mirabilis ATCC 21100
Method: as §1, §2

[7] = test system: Citrobacter freundii BK 2122/00 (wild-type)
Method: as §1, §2

[8] = test system: Yersinia enterococcus NCTC 11174
Method: as §1, §2

[9] = test system: Eikenella corrodens (wild-type)
Method: as §1, §2

[10] = test system: Pseudomonas aeruginosa CF 453 Va mr (wild-type)
Method: as §1, §2

[11] = test system: Staphylococcus aureus ATCC 33593 (MRSA)
Method: as §1, §2

[12] = test system: Enterobacter cloacae ATCC 13047
Method: as §1, §2

[13] = test system: Staphylococcus aureus ATCC 43300 (MRSA)
Method: as §1, §2

[14] = test system: Serratia marcescens Mero 103/013 (wild-type)
Method: as §1, §2

[15] = test system: Acinetobacter Genosp. 10 ATCC 17924
Method: as §1, §2

[16] = test system: Acinetobacter Genosp. 11 ATCC 11171
Method: as §1, §2

[17] = test system: Aeeromonas hydrophila ATCC 7966
Method: as §1, §2

[18] = test system: Klebsiella pneumoniae (ESBL) CF 2 (wild-type)
Method: as §1, §2

[19] = test system: Streptococcus pyogenes ATCC 12344
Method: as §1, §2

[20] = test system: Staphylococcus aureus (MRSA 358) (wild-type)
Method: as §1, §2

[21] = test system: Candida albicans C.a 46 (wild-type)
Method: as §1, §2

[22] = test system: Candida albicans ATCC 24433
Method: as §1, §2

[23] = test system: Klebsiella pneumoniae (ESBL) CF 31 (wild-type)
Method: as §1, §2

[24] = test system: Candida glabrata BK 9570/02 (wild-type)
Method: as §1, §2

[25] = test system: Salmonella typhimurium ATCC 13311
Method: as §1, §2

Substance: human β-defensin-2 (GIGDPVTCLKSGAICHPVFCPRRYKQIGTCGLPGTKCCKKP; ends and bridges not checked; cysteine pairing not given here) [hβD2, recombinant hβD2]
- LD 90 = μg/ml 90% killing (E. coli ATCC 25922): 6.25 µg/mL
- MBC = μg/ml 99.9% killing (E. coli ATCC 25922): 12.5 µg/mL
- LD 90 = μg/ml 90% killing [1]: 6.25 µg/mL
- MBC = μg/ml 99.9% killing [1]: 50 µg/mL
- LD 90 = μg/ml 90% killing [2]: 6.25 µg/mL
- MBC = μg/ml 99.9% killing [2]: 12.5 µg/mL
- LD 90 = μg/ml 90% killing [3]: 100 µg/mL
- MBC = μg/ml 99.9% killing [3]: >100 µg/mL
- LD 90 = μg/ml 90% killing [4]: 12.5 µg/mL
- MBC = μg/ml 99.9% killing [4]: 25 µg/mL
- LD 90 = μg/ml 90% killing [5]: 100 µg/mL
- MBC = μg/ml 99.9% killing [5]: >100 µg/mL
- LD 90 = μg/ml 90% killing [6]: 50 µg/mL
- MBC = μg/ml 99.9% killing [6]: >100 µg/mL
- LD 90 = μg/ml 90% killing [7]: 6.25 µg/mL
- MBC = μg/ml 99.9% killing [7]: 25 µg/mL
- LD 90 = μg/ml 90% killing [8]: >100 µg/mL
- MBC = μg/ml 99.9% killing [8]: >100 µg/mL
- LD 90 = μg/ml 90% killing [9]: 50 µg/mL
- MBC = μg/ml 99.9% killing [9]: 50 µg/mL
- LD 90 = μg/ml 90% killing [10]: 12.5 µg/mL
- MBC = μg/ml 99.9% killing [10]: 25 µg/mL
- LD 90 = μg/ml 90% killing [11]: 100 µg/mL
- MBC = μg/ml 99.9% killing [11]: >100 µg/mL
- LD 90 = μg/ml 90% killing [12]: 25 µg/mL
- MBC = μg/ml 99.9% killing [12]: 100 µg/mL
- LD 90 = μg/ml 90% killing [13]: 100 µg/mL
- MBC = μg/ml 99.9% killing [13]: >100 µg/mL
- LD 90 = μg/ml 90% killing [14]: 100 µg/mL
- MBC = μg/ml 99.9% killing [14]: >100 µg/mL
- LD 90 = μg/ml 90% killing [15]: 0.39 µg/mL
- MBC = μg/ml 99.9% killing [15]: 1.56 µg/mL
- LD 90 = μg/ml 90% killing [16]: 0.39 µg/mL
- MBC = μg/ml 99.9% killing [16]: 3.125 µg/mL
- LD 90 = μg/ml 90% killing [17]: 100 µg/mL
- MBC = μg/ml 99.9% killing [17]: >100 µg/mL
- LD 90 = μg/ml 90% killing [18]: 6.25 µg/mL
- MBC = μg/ml 99.9% killing [18]: 25 µg/mL
- LD 90 = μg/ml 90% killing [19]: 100 µg/mL
- MBC = μg/ml 99.9% killing [19]: >100 µg/mL
- LD 90 = μg/ml 90% killing [20]: 100 µg/mL
- MBC = μg/ml 99.9% killing [20]: >100 µg/mL
- LD 90 = μg/ml 90% killing [21]: 6.25 µg/mL
- MBC = μg/ml 99.9% killing [21]: 25 µg/mL
- LD 90 = μg/ml 90% killing [22]: 3.125 µg/mL
- MBC = μg/ml 99.9% killing [22]: 25 µg/mL
- LD 90 = μg/ml 90% killing [23]: 6.25 µg/mL
- MBC = μg/ml 99.9% killing [23]: 25 µg/mL
- LD 90 = μg/ml 90% killing [24]: >100 µg/mL
- MBC = μg/ml 99.9% killing [24]: >100 µg/mL
- LD 90 = μg/ml 90% killing [25]: 1.56 µg/mL
- MBC = μg/ml 99.9% killing [25]: 6.25 µg/mL
